Our source for the GI50 values is US20250388605A1, “HETEROBIFUNCTIONAL COMPOUNDS AND METHODS OF TREATING DISEASE” (Halda Therapeutics OpCo, Inc., priority 2022, published 2025).

The subject of one assay is VCaP cells. Nature of the assay: Cellular growth inhibition assay for VCaP cells, CellTiter-Glo. The class given is cell-based, human. The note with it: 72 hours. The protocol: VCaP cells were purchased from American Type Cell Culture (ATCC Cat #CRL2876) and then seeded on poly-D-lysine coated, black clear-bottom 384-well plates at 5000/well in 25 μL Dulbecco's Modified Eagle Medium (DMEM) supplemented with 10% w/w Fetal bovine serum (FBS) and 1% w/w Pen-Strep. Pen-Strep is a commercially available mixture of penicillin G and streptomycin, which is used in mammalian cell culture media to prevent bacterial contamination. Dulbecco's Modified Eagle Medium (DMEM) supplemented with 10% w/w fetal bovine serum (FBS) and 1% w/w Pen-Strep is herein referred to as Treatment Medium. Following seeding of cells in the plates, the plates were spun at 300×g for 30 seconds, then equilibrated to room temperature for 30 minutes, and then deposited in a humidified tissue culture incubator maintained at 37° C. with 5% CO2.
(§1) At 24 hours after seeding of the cells, dilutions of test compound were prepared in DMSO and dissolved in Treatment Medium, to achieve a final DMSO concentration of 0.5% w/w, thereby providing the Test Compound Solution. A 25 μL aliquot of the Test Compound Solution was added to cells in the well plates. An equal volume of a solution containing DMSO and Treatment Medium was used as a negative control. Following treatment of cells with Test Compound Solution or said equal volume of a solution containing DMSO and Treatment Medium, the plates were spun at 300×g for 30 seconds, and then left in an incubator for 72 hours.
(§2) At the end of the treatment duration, cell viability was quantified with CellTiter-Glo 2.0 reagent (Promega Cat #G9243). For this purpose, plates were equilibrated to room temperature for 30 minutes, and then 25 μL of CellTiter-Glo 2.0 reagent was added to cells in the plate wells. Plates were then agitated on a shaker for two minutes at 500 rpm and subsequently incubated at room temperature for 10 minutes. Following incubation, the plates were spun at 3000×g for 30 seconds, then sealed with an optical adhesive cover, and luminescence readings were measured with an EnVision Plate Reader.
(§3) Data was normalized using zero luminescence for baseline. A four-parameter non-linear regression curve fit was applied to dose-response data in GraphPad Prism data analysis software to determine the half-maximal growth inhibitory concentration (GI50) for each test compound.
(In ATP-based viability assays light output follows the ATP content of the culture.)

Assay [1] relates to T-Rex 293 cell line SC3 cells having increased expression of androgen receptor protein due to exposure to doxycycline. Nature of the assay: Cellular growth inhibition, T-Rex 293 SC3 cells with doxycycline (increased androgen receptor expression), CellTiter-Glo. The class given is cell-based. The note with it: T-Rex 293 SC3 cells with 10 ng/mL doxycycline (increased androgen receptor expression), 72 hours, CellTiter-Glo 2.0. The protocol: (§4) The following types of cells were prepared for this experiment: (i) a T-Rex 293 cell line having increased expression of androgen receptor protein due to exposure to doxycycline and (ii) a T-Rex 293 cell line lacking increased expression of androgen receptor protein. Ability of the test compounds to inhibit proliferation of the foregoing cell types was evaluated according to the procedures set forth below.
(§5) The doxycycline-inducible androgen receptor protein expressing cell line was established using the following protocol: T-Rex 293 cells were purchased from Invitrogen (Cat #R71007) and transfected using Lipofectamine 2000 with the wild-type androgen receptor protein sequence cloned into the pcDNA4/TO vector. Transfected cells were selected using 400 μg/mL Zeocin (Invitrogen Cat #R25001). Following selection, single clones were raised and maintained in Dulbecco's Modified Eagle Medium (DMEM) supplemented with 10% w/w Tetracycline-free fetal bovine serum (FBS) and 250 μg/mL Zeocin. Clones were analyzed for expression of androgen receptor protein in the presence and absence of 10 ng/mL doxycycline (Sigma Cat #D9891), and a single doxycycline-inducible clone (hereinafter “SC3”) was selected for use in downstream assays.
(§6) The SC3 cells were seeded on poly-D-lysine coated, black clear-bottom 384-well plates at 2500/well, in 25 μL Phenol Red Free Dulbecco's Modified Eagle Medium (DMEM) supplemented with 10% w/w charcoal-dextran treated fetal bovine serum (FBS) and 1% w/w pen-strep, with or without 10 ng/mL doxycycline. Pen-Strep is a commercially available mixture of penicillin G and streptomycin, which is used in mammalian cell culture media to prevent bacterial contamination. Phenol Red Free Dulbecco's Modified Eagle Medium (DMEM) supplemented with 10% w/w charcoal-dextran treated fetal bovine serum (FBS) and 1% w/w pen-strep, with or without 10 ng/mL doxycycline is herein referred to as Treatment Medium. Following seeding of cells in the plates, the plates were spun at 300×g for 30 seconds, then equilibrated to room temperature for 30 minutes, and then deposited in a humidified tissue culture incubator maintained at 37° C. with 5% CO2.
as §1, §2, §3

The subject of assay [2] is T-Rex 293 cell line SC3 cells lacking increased expression of androgen receptor protein. Nature of the assay: Cellular growth inhibition, T-Rex 293 SC3 cells without doxycycline (no increased androgen receptor expression), CellTiter-Glo. The class given is cell-based. The conditions noted are these: T-Rex 293 SC3 cells not exposed to doxycycline (no increased androgen receptor expression), 72 hours. The protocol: as §4, §5, §6, §1, §2, §3

The term GI50 denotes the concentration at which growth is held to half of that of the control. A higher GI50 goes with lower sensitivity of the cells. Consider `CCS(=O)(=O)Cc1ccc(Oc2cccc(N3CC(N4CCN(c5ncc(C(=O)N[C@H]6C(C)(C)[C@H](Oc7ccc(C#N)c(Cl)c7)C6(C)C)cn5)CC4)C3)c2F)c(-c2cn(C)c(=O)c3[nH]ccc23)c1` [Compound I-174], for which the figures for the GI50 (in the assay on VCaP cells (Homo sapiens); in assay [1]; in assay [2]) were < 500 nM, < 500 nM and > 3000 nM, respectively.
As to `CCS(=O)(=O)Nc1ccc(Oc2cccc(OCCCN3CCN(CC4CCN(c5ncc(C(=O)N[C@H]6C(C)(C)[C@H](Oc7ccc(C#N)c(Cl)c7)C6(C)C)cn5)CC4)CC3)c2)c(-c2cn(C)c(=O)c3[nH]ccc23)c1` [Compound I-33], the GI50 (in the assay with VCaP cells (Homo sapiens); in assay [1]; in assay [2]) was < 500 nM in each case.
Take `CCS(=O)(=O)c1ccc(Oc2cccc(OCCOC3CCN(c4ncc(C(=O)N[C@H]5C(C)(C)[C@H](Oc6ccc(C#N)c(Cl)c6)C5(C)C)cn4)CC3)c2)c(-c2cn(C)c(=O)c3[nH]ccc23)c1` [Compound I-55, N-((1r, 3r)-3-(3-chloro-4-cyanophenoxy)-2,2,4,4-tetramethylcyclobutyl)-2-(4-(2-(3-(4-(ethylsulfonyl)-2-(6-methyl-7-oxo-6,7-dihydro-1H-pyrrolo[2,3-c]pyridin-4-yl)phenoxy)phenoxy)ethoxy)piperidin-1-yl)pyrimidine-5-carboxamide]: the GI50 (with VCaP cells (Homo sapiens); in assay [1]; in assay [2]) was < 500 nM in each case.
For the compound `CCS(=O)(=O)Nc1ccc(Oc2cccc(OCCN3CCN(CC4CCN(c5ncc(C(=O)N[C@H]6C(C)(C)[C@H](Oc7ccc(C#N)c(Cl)c7)C6(C)C)cn5)CC4)CC3)c2)c(-c2cn(C)c(=O)c3[nH]ccc23)c1` [Compound I-32], the GI50 (with VCaP cells (Homo sapiens); in assay [1]; in assay [2]) was < 500 nM in each case.
Consider `CCS(=O)(=O)Nc1ccc(Oc2cccc(OCCCCOC3CCN(c4ncc(C(=O)N[C@H]5C(C)(C)[C@H](Oc6ccc(C#N)c(Cl)c6)C5(C)C)cn4)CC3)c2)c(-c2cn(C)c(=O)c3[nH]ccc23)c1` [Compound I-15], for which the GI50 with VCaP cells (Homo sapiens) was < 500 nM; in assay [1], < 500 nM; in assay [2] it was 500 to 1500 nM.
Regarding `Cn1cc(-c2cc(C(C)(C)O)ccc2Oc2ccc(N3CC4(CCN(c5cnc(C(=O)N[C@H]6C(C)(C)[C@H](Oc7ccc(C#N)c(Cl)c7)C6(C)C)cn5)CC4)C3)cc2)c2cc[nH]c2c1=O` [Compound I-352], the GI50 in the assay on VCaP cells was < 500 nM; in assay [1], < 500 nM; in assay [2] it was > 3000 nM.
For `CCS(=O)(=O)Nc1ccc(Oc2cccc(OCCCC3CCN(c4ncc(C(=O)N[C@H]5C(C)(C)[C@H](Oc6ccc(C#N)c(Cl)c6)C5(C)C)cn4)CC3)c2F)c(-c2cn(C)c(=O)c3[nH]ccc23)c1` [Compound I-155], the values for the GI50 (in the assay with VCaP cells (Homo sapiens); in assay [1]; in assay [2]) were < 500 nM, < 500 nM and > 3000 nM, respectively.
`Cn1cc(-c2cc(NS(=O)(=O)C3CC3)ccc2Oc2cccc(OCCC3CCN(c4ncc(C(=O)N[C@H]5C(C)(C)[C@H](Oc6ccc(C#N)c(Cl)c6)C5(C)C)cn4)CC3)c2)c2cc[nH]c2c1=O` [Compound I-130]: the figures for the GI50 (in the assay with VCaP cells; in assay [1]; in assay [2]) were < 500 nM, < 500 nM and > 3000 nM, respectively.
For `CCS(=O)(=O)Cc1ccc(Oc2cccc(OCCOC3CCN(c4ccc(C(=O)N[C@H]5C(C)(C)[C@H](Oc6ccc(C#N)c(Cl)c6)C5(C)C)cn4)CC3)c2F)c(-c2cn(C)c(=O)c3[nH]ccc23)c1` [Compound I-166], the GI50 (in the assay with VCaP cells (Homo sapiens); in assay [1]; in assay [2]) was < 500 nM each time.
`Cn1cc(-c2cc(NS(=O)(=O)C3CC3)ccc2Oc2cccc(CCCN3CCN(c4ncc(C(=O)N[C@H]5C(C)(C)[C@H](Oc6ccc(C#N)c(Cl)c6)C5(C)C)cn4)CC3)c2F)c2cc[nH]c2c1=O` [Compound I-135]: the GI50 in the assay with VCaP cells was < 500 nM; in assay [1], < 500 nM; in assay [2], > 3000 nM.
Turning to `CCS(=O)(=O)Nc1ccc(Oc2ccc(CCCOC3CCN(c4ncc(C(=O)N[C@H]5C(C)(C)[C@H](Oc6ccc(C#N)c(Cl)c6)C5(C)C)cn4)CC3)cc2)c(-c2cn(C)c(=O)c3[nH]ccc23)c1` [Compound I-152], the GI50 (with VCaP cells; in assay [1]; in assay [2]) was < 500 nM each time.
For the compound `CCS(=O)(=O)Nc1ccc(Oc2cccc(CCCCCOC3CCN(c4ncc(C(=O)N[C@H]5C(C)(C)[C@H](Oc6ccc(C#N)c(Cl)c6)C5(C)C)cn4)CC3)c2)c(-c2cn(C)c(=O)c3[nH]ccc23)c1` [Compound I-22], the 50% growth inhibitory concentration (GI50) (with VCaP cells (Homo sapiens); in assay [1]; in assay [2]) was < 500 nM each time.
With `CCS(=O)(=O)Nc1ccc(Oc2cccc(N(C)CCN(C)C3CCN(c4ncc(C(=O)N[C@H]5C(C)(C)[C@H](Oc6ccc(C#N)c(Cl)c6)C5(C)C)cn4)CC3)c2)c(-c2cn(C)c(=O)c3[nH]ccc23)c1` [Compound I-86], the 50% growth inhibitory concentration (GI50) (in the assay on VCaP cells (Homo sapiens); in assay [1]; in assay [2]) was < 500 nM throughout.
On to `CCS(=O)(=O)Nc1ccc(-n2ccc(OCCOC3CCN(c4ncc(C(=O)NC5C(C)(C)C(Oc6ccc(C#N)c(Cl)c6)C5(C)C)cn4)CC3)cc2=O)c(-c2cn(C)c(=O)c3[nH]ccc23)c1` (stereo not drawn) [Compound I-112, N-[3-(3-chloro-4-cyano-phenoxy)-2,2,4,4-tetramethyl-cyclobutyl]-2-[4-[2-[[1-[4-(ethylsulfonylamino)-2-(6-methyl-7-oxo-1H-pyrrolo[2,3-c]pyridin-4-yl)phenyl]-2-oxo-4-pyridyl]oxy]ethoxy]-1-piperidyl]pyrimidine-5-carboxamide], for which the GI50 is > 3000 nM in the assay on VCaP cells (Homo sapiens), < 500 nM in assay [1] and > 3000 nM in assay [2].
On to `Cn1cc(-c2cc(NS(C)(=O)=O)ccc2Oc2cccc(OCCOC3CCN(c4ncc(C(=O)N[C@H]5C(C)(C)[C@H](Oc6ccc(C#N)c(Cl)c6)C5(C)C)cn4)CC3)c2)c2cc[nH]c2c1=O` [Compound I-50, N-((1r, 3r)-3-(3-chloro-4-cyanophenoxy)-2,2,4,4-tetramethylcyclobutyl)-2-(4-(2-(3-(2-(6-methyl-7-oxo-6,7-dihydro-1H-pyrrolo[2,3-c]pyridin-4-yl)-4-(methylsulfonamido)phenoxy)phenoxy)ethoxy)piperidin-1-yl)pyrimidine-5-carboxamide], for which the GI50 (with VCaP cells (Homo sapiens); in assay [1]; in assay [2]) was < 500 nM in each case.
Turning to `CCS(=O)(=O)Nc1ccc(Oc2cccc(OCCNC3CCN(c4ncc(C(=O)N[C@H]5C(C)(C)[C@H](Oc6ccc(C#N)c(Cl)c6)C5(C)C)cn4)CC3)c2)c(-c2cn(C)c(=O)c3[nH]ccc23)c1` [Compound I-85], the GI50 with VCaP cells (Homo sapiens) is < 500 nM; in assay [1] it was < 500 nM; in assay [2], 500 to 1500 nM.
Consider `CCS(=O)(=O)Nc1ccc(Oc2cccc(OCCC3CCN(c4ncc(C(=O)N[C@H]5C(C)(C)[C@H](Oc6ccc(C#N)c(Cl)c6)C5(C)C)cn4)CC3)c2)c(-c2cn(C)c(=O)c3[nH]ccc23)c1` [Compound I-26], for which the GI50 (in the assay on VCaP cells (Homo sapiens); in assay [1]; in assay [2]) was < 500 nM each time.
